Assay results published in publication PMC5037631, “Identification and characterization of putative xylose and cellobiose transporters in Aspergillus nidulans” (Biotechnology for Biofuels, 2016).

Biological target: T1, CltA (formerly XtrG; CltA::GFP) (Aspergillus nidulans, UniProt Q5ATN3)
T1 construct: gene ANIA_08347; full-length ORF from cDNA, GFP fusion, expressed in S. cerevisiae SC9721 with N. crassa beta-glucosidase gh1-1; plasma membrane
Experiment: growth complementation of S. cerevisiae SC9721 gh1-1 on cellobiose
Assay type: cell-based
Details: 0.1-2 % cellobiose as sole carbon source, 30 °C; intracellular beta-glucosidase gh1-1 coexpressed

T1 sequence (Q5ATN3 entry or part of it): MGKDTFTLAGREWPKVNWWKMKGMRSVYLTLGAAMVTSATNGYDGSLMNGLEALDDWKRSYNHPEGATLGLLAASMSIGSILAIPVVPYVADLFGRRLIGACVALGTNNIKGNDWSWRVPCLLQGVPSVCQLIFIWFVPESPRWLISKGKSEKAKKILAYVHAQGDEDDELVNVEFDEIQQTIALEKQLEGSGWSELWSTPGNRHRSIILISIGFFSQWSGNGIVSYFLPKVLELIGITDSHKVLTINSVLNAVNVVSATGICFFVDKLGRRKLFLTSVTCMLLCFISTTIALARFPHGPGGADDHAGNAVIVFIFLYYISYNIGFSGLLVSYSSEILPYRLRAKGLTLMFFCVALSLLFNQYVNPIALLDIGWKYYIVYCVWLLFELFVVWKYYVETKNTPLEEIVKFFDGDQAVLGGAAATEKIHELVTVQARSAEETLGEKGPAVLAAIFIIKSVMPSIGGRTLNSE

SMILES: OC[C@H]1O[C@@H](O[C@H]2[C@H](O)[C@@H](O)C(O)O[C@@H]2CO)[C@H](O)[C@@H](O)[C@@H]1O (stereo partly shown) [cellobiose]
- growth complementation of S. cerevisiae SC9721 gh1-1 on cellobiose: CltA, and to a lesser extent CltB, is able to transport cellobiose
